Patent US20080306044A1, “SPIROBENZOAZEPANES AS VASOPRESSIN ANTAGONISTS” (priority 2007, published 2008)
Where two headings read alike, the source gives them in different places.

Tests used:
human V1a receptor = molecular target: T1, human V1a receptor (Homo sapiens, UniProt P37288); assay: cell-based
T1 construct: expressed in transfected cells
Method: The V1a receptor is a G-protein coupled receptor, which upon activation triggers an increase in intracellular calcium mobilization. To evaluate compounds for their functional V1a receptor activity, HEK-293 cells were transfected with the human V1a receptor (V1a-HEK cells). HEK-293 cells were grown in DMEM (Dulbecco's modified Eagle Media) supplemented with 10% FBS and glutamine. HEK-cells were passed biweekly by trypsinization and seeded into 96 well plates at 33,000 cells per well. HEK-293 cells were transfected with human V1a receptor DNA using DMRIE-C reagent from Life Technologies (Carlsbad, Calif.). Stable lines were generated by selecting cells grown in culture media containing geneticin. After growing in Packard Clear-View black 96 well plates for 4-6 days, V1a-HEK cells were loaded with the calcium-sensitive fluorescence dye, FLUO-3 AM. Changes in intracellular calcium mobilization were measured by quantitating intracellular fluorescence using FLIPR (Fluorometric Imaging Plate Reader; Molecular Devices, Sunnyvale, Calif.). Test compounds were first added to the cells and the resulting changes in fluorescence measured to detect receptor agonistic activity. Five minutes later the cells were challenged with vasopressin to test compounds for their antagonistic activity. Receptor antagonists inhibit the ability of vasopressin to stimulate increases in intracellular fluorescence.

human V2 receptor = human V2 receptor (Homo sapiens, UniProt P30518); assay: V2 vasopressin receptor functional activity (cAMP accumulation); format: cell-based; design: expressed in transfected cells; host or cells: HEK-293
human V2 receptor, sequence (P30518 whole entry): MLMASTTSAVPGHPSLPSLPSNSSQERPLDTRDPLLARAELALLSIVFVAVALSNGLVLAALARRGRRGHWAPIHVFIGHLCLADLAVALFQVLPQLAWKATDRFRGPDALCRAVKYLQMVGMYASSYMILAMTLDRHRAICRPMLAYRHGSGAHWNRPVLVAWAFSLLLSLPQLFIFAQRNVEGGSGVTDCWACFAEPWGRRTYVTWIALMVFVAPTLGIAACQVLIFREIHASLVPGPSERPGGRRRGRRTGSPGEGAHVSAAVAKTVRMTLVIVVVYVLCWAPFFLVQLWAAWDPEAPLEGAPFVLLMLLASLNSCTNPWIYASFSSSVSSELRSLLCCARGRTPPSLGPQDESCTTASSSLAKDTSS
Method: The V2 receptor is also a G-protein coupled receptor which when activated induces an increase in cAMP turnover. Antagonism against the V2 receptor is determined by measuring cAMP accumulation in transfected HEK-293 cells expressing the human V-2 receptor (V2-HEK cells). Compounds are tested for their ability to block the stimulatory effects of vasopressin on cAMP accumulation. The cell content of cAMP is measured by radioimmunoassay using NEN flashplates.

[1] = V2-HEK cells, block of vasopressin-stimulated cAMP accumulation, read-out: V2 (functional) IC50
[2] = V1 (functional) IC50, V1a-HEK cells, inhibition of vasopressin-stimulated intracellular calcium mobilization
[3] = V1a-HEK cells, inhibition of vasopressin-stimulated intracellular calcium mobilization, read-out: V1 (functional) IC50

T1 sequence (P37288 whole entry): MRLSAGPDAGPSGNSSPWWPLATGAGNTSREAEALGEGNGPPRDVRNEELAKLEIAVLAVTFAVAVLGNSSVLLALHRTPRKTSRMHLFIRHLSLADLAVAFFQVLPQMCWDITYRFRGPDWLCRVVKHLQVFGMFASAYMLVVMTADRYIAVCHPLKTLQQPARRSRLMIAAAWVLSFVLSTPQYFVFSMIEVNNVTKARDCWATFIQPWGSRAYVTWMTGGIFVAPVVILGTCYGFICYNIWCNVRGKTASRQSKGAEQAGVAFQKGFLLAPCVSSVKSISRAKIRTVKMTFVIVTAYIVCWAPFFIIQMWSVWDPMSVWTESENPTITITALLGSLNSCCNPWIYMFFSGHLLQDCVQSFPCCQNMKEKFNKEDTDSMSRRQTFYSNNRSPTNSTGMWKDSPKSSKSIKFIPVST

IC50 (human V1a receptor; [2])	IC50 (human V2 receptor)	Compound	IC50 (human V1a receptor)	IC50 (human V2 receptor; [1])	IC50 (human V1a receptor; [3])
–	–	COc1cc(C(=O)N2CC[C@@]3(CCC(=CC(=O)NCCN4CCOCC4)C3)Cc3ccccc32)ccc1NC(=O)c1cc(F)ccc1Cl [Cpd 28, (R)—N-[3-methoxy-4-(2-chloro-5-fluoro-phenylcarbonyl)amino-phenylcarbonyl]-3-(2-morpholin-4-yl-ethyl)aminocarbonylmethylene-spiro[cyclopentane-1,4′-benzo[b]azepane]]	220 nM	200 nM	–
–	–	COc1cc(C(=O)N2CC[C@@]3(CCC(N)C3)Cc3ccccc32)ccc1NC(=O)c1cc(F)ccc1Cl (stereo partly drawn) [Cpd 17, (1R)-3-amino-N-[3-methoxy-4-(2-chloro-5-fluoro-phenylcarbonyl)amino-phenylcarbonyl]-spiro[cyclopentane-1,4′-benzo[b]azepane]]	730 nM	1100 nM	–
–	–	COc1cc(C(=O)N2CC[C@@]3(CCC(N4CCOCC4)C3)Cc3ccccc32)ccc1NC(=O)c1cc(F)ccc1Cl (stereo partly drawn) [Cpd 18, (1R)—N-[3-methoxy-4-(2-chloro-5-fluoro-phenylcarbonyl)amino-phenylcarbonyl]-3-morpholin-4-yl-spiro[cyclopentane-1,4′-benzo[b]azepane]]	240 nM	1200 nM	–
78 nM	–	COc1cc(C(=O)N2CC[C@@]3(CC[C@@H](NS(N)(=O)=O)C3)Cc3ccccc32)ccc1NC(=O)c1cc(F)ccc1Cl [Cpd 35, (1R,3R)-3-aminosulfonylamino-N-[3-methoxy-4-(2-chloro-5-fluoro-phenylcarbonyl)amino-phenylcarbonyl]-spiro[cyclopentane-1,4′-benzo[b]azepane]]	–	44 nM	–
–	–	NS(=O)(=O)NC(=O)C1=C[C@@]2(CC1)CCN(C(=O)c1ccc(NC(=O)c3cc(F)ccc3Cl)cc1)c1ccccc1C2 [Cpd 52, (R)-3-aminosulfonylaminocarbonyl-N-[4-(2-chloro-5-fluoro-phenylcarbonyl)amino-phenylcarbonyl]-spiro[cyclopent-2-ene-1,4′-benzo[b]azepane]]	77 nM	35 nM	–
–	–	COc1cc(C(=O)N2CC[C@]3(C=C(c4ncc[nH]4)CC3)Cc3ccccc32)ccc1NC(=O)c1cc(F)ccc1Cl [Cpd 14, (R)-N-[3-methoxy-4-(2-chloro-5-fluoro-phenylcarbonyl)amino-phenylcarbonyl]-3-(1H-imidazol-2-yl)-spiro[cyclopent-2-ene-1,4′-benzo[b]azepane]]	–	730 nM	95 nM
–	–	COc1cc(C(=O)N2CC[C@@]3(CCC(=CC(=O)NCCN(C)C)C3)Cc3ccccc32)ccc1NC(=O)c1cc(F)ccc1Cl [Cpd 31, (R)-N-[3-methoxy-4-(2-chloro-5-fluoro-phenylcarbonyl)amino-phenylcarbonyl]-3-(2-dimethylamino-ethyl)aminocarbonylmethylene-spiro[cyclopentane-1,4′-benzo[b]azepane]]	150 nM	140 nM	–
–	–	COc1cc(C(=O)N2CCC3(CCCC3NS(N)(=O)=O)Cc3ccccc32)ccc1NC(=O)c1cc(F)ccc1Cl (stereo not drawn) [Cpd 33, 2-aminosulfonylamino-N-[3-methoxy-4-(2-chloro-5-fluoro-phenylcarbonyl)amino-phenylcarbonyl]-spiro[cyclopentane-1,4′-benzo[b]azepane]]	330 nM	31 nM	–
130 nM	–	COc1cc(C(=O)N2CC[C@@]3(CCC(=NN(C)C)C3)Cc3ccccc32)ccc1NC(=O)c1cc(F)ccc1Cl [Cpd 27, (R)—N-[3-methoxy-4-(2-chloro-5-fluoro-phenylcarbonyl)amino-phenylcarbonyl]-3-dimethylaminoimino-spiro[cyclopentane-1,4′-benzo[b]azepane]]	–	390 nM	–
–	–	COc1cc(C(=O)N2CC[C@]3(C=C(c4nnn[nH]4)CC3)Cc3ccccc32)ccc1NC(=O)c1cc(F)ccc1Cl [Cpd 11, (R)-N-[3-methoxy-4-(2-chloro-5-fluoro-phenylcarbonyl)amino-phenylcarbonyl]-3-tetrazol-5-yl-spiro[cyclopent-2-ene-1,4′-benzo[b]azepane]]	–	40 nM	63 nM
90 nM	400 nM	COc1cc(C(=O)N2CC[C@@]3(CCC(=NO)C3)Cc3ccccc32)ccc1NC(=O)c1cc(F)ccc1Cl [Cpd 15, (R)-N-[3-methoxy-4-(2-chloro-5-fluoro-phenylcarbonyl)amino-phenylcarbonyl]-3-hydroxyimino-spiro[cyclopentane-1,4′-benzo[b]azepane]]	–	–	–
–	–	COc1cc(C(=O)N2CC[C@@]3(CCC(N4CCCC4)C3)Cc3ccccc32)ccc1NC(=O)c1cc(F)ccc1Cl (stereo partly drawn) [Cpd 25, (1R)-N-[3-methoxy-4-(2-chloro-5-fluoro-phenylcarbonyl)amino-phenylcarbonyl]-3-(1H-pyrrolidin-1-yl)-spiro[cyclopentane-1,4′-benzo[b]azepane]]	810 nM	1000 nM	–
210 nM	–	CNC(=O)C=C1CC[C@@]2(CCN(C(=O)c3ccc(NC(=O)c4cc(F)ccc4Cl)c(OC)c3)c3ccccc3C2)C1 [Cpd 30, (R)—N-[3-methoxy-4-(2-chloro-5-fluoro-phenylcarbonyl)amino-phenylcarbonyl]-3-methylaminocarbonylmethylene-spiro[cyclopentane-1,4′-benzo[b]azepane]]	–	90 nM	–
170 nM	–	COc1cc(C(=O)N2CC[C@@]3(CCC(=CC(N)=O)C3)Cc3ccccc32)ccc1NC(=O)c1cc(F)ccc1Cl [Cpd 32, (R)-3-aminocarbonylmethylene-N-[3-methoxy-4-(2-chloro-5-fluoro-phenylcarbonyl)amino-phenylcarbonyl]-spiro[cyclopentane-1,4′-benzo[b]azepane]]	–	34 nM	–
290 nM	–	CON=C1CC[C@@]2(CCN(C(=O)c3ccc(NC(=O)c4cc(F)ccc4Cl)c(OC)c3)c3ccccc3C2)C1 [Cpd 22, (R)—N-[3-methoxy-4-(2-chloro-5-fluoro-phenylcarbonyl)amino-phenylcarbonyl]-3-methoxyimino-spiro[cyclopentane-1,4′-benzo[b]azepane]]	–	740 nM	–
–	–	COc1cc(C(=O)N2CC[C@@]3(CCC(NCCN(C)C)C3)Cc3ccccc32)ccc1NC(=O)c1cc(F)ccc1Cl (stereo partly drawn) [Cpd 21, (1R)—N-[3-methoxy-4-(2-chloro-5-fluoro-phenylcarbonyl)amino-phenylcarbonyl]-3-(2-dimethylamino-ethyl)amino-spiro[cyclopentane-1,4′-benzo[b]azepane]]	170 nM	1100 nM	–
170 nM	–	COc1cc(C(=O)N2CC[C@@]3(CCC(=CC(=O)NCCO)C3)Cc3ccccc32)ccc1NC(=O)c1cc(F)ccc1Cl [Cpd 29, (R)—N-[3-methoxy-4-(2-chloro-5-fluoro-phenylcarbonyl)amino-phenylcarbonyl]-3-(2-hydroxy-ethyl)aminocarbonylmethylene-spiro[cyclopentane-1,4′-benzo[b]azepane]]	–	90 nM	–
–	–	COc1cc(C(=O)N2CC[C@@]3(CCC(=CC(=O)O)C3)Cc3ccccc32)ccc1NC(=O)c1cc(F)ccc1Cl [Cpd 16, (R)-N-[3-methoxy-4-(2-chloro-5-fluoro-phenylcarbonyl)amino-phenylcarbonyl]-3-carboxymethylene-spiro[cyclopentane-1,4′-benzo[b]azepane]]	30 nM	74 nM	–
–	–	COc1cc(C(=O)N2CC[C@]3(C=C(C(=O)NS(N)(=O)=O)CC3)Cc3ccccc32)ccc1NC(=O)c1cc(F)ccc1Cl [Cpd 13, (R)-3-aminosulfonylaminocarbonyl-N-[3-methoxy-4-(2-chloro-5-fluoro-phenylcarbonyl)amino-phenylcarbonyl]-spiro[cyclopent-2-ene-1,4′-benzo[b]azepane]]	–	11 nM	27 nM
–	–	COc1cc(C(=O)N2CC[C@]3(C=C(C4=NCCN4)CC3)Cc3ccccc32)ccc1NC(=O)c1cc(F)ccc1Cl [Cpd 12, (R)-N-[3-methoxy-4-(2-chloro-5-fluoro-phenylcarbonyl)amino-phenylcarbonyl]-3-(4,5-dihydro-1H-imidazol-2-yl)-spiro[cyclopent-2-ene-1,4′-benzo[b]azepane]]	–	1100 nM	320 nM
–	–	COc1cc(C(=O)N2CC[C@@]3(CCC(N4CCN(C)CC4)C3)Cc3ccccc32)ccc1NC(=O)c1cc(F)ccc1Cl (stereo partly drawn) [Cpd 23, (1R)—N-[3-methoxy-4-(2-chloro-5-fluoro-phenylcarbonyl)amino-phenylcarbonyl]-3-(4-methyl-piperazin-1-yl)-spiro[cyclopentane-1,4′-benzo[b]azepane]]	–	–	710 nM
–	–	COc1cc(C(=O)N2CC[C@@]3(CCC(N(C)C)C3)Cc3ccccc32)ccc1NC(=O)c1cc(F)ccc1Cl (stereo partly drawn) [Cpd 20, (1R)—N-[3-methoxy-4-(2-chloro-5-fluoro-phenylcarbonyl)amino-phenylcarbonyl]-3-dimethylamino-spiro[cyclopentane-1,4′-benzo[b]azepane]]	–	–	490 nM
